In patent EP0926242A1, “GLIOTOXIN DERIVATIVES AND ANTICANCER AGENT COMPRISING THE SAME” (priority 1996, dated 1998):
Converted amounts (≈) assume the structure as drawn. Read-outs that look alike come from different tables or passages of the source.

Columns and labels:
[1] = system: mouse carcinoma of the colon cells colon 26; experiment: Anticancer effect in vivo against colon 26 (Example 9 A); details: CDFI mice
Method: (§1) • (A) Evaluationin vivo using mouse carcinoma of the colon cells colon 26 CDFI mice (female : 4 weks age) were bought, and colon 26 subcultured in the subcutaneous tissue of the mouse was taken out, and cut into small pieces by a scissors. The cancer cells were transplanted into subcutaneous tisue of CDFI mice by a trucker. The day was assigned 0 day, and the tumor was measured by a slide caliper after 7 days. The volume of the tumor was calculated, and divided into groups (each group : n = 4). The text compound was dissolved in dimethylsulfoxide, and diluted with 5 % Tween 80- saline aqueous solution. […] The administration was carried out after 7 days, after 11 days and after 15 days or after 7 days and after 8 days from the transplantation at a rate of once per one day. 21st day from the transplantation, the volume of tumor was measured and the volume of tumor and the inhibition against tumor multiplication rate (I.R.) were calculated. The volume of tumor was calculated by the following formula. (Tumore Volume [mm)^3 (]= Minor Axis [mm])^2 × Major Axis [mm] × (1/2) [formula] • The inhibition against tumor multiplication rate (I.R.) was calculated by the following formula. I.R. [%] = {1- (Average Tumor Volume of Administration Group / Average Tumor Volume of Control Group)) × 100 [formula] • (B) Evaluation in vivo using human carcinoma of the colon cells HCT-116 Balb/c nu/nu mice (female : 5 weks age) were bought, and HCT-116 (Dainippon Seiyaku) subcultured in the subcutaneous tissue of the mouse was taken out, and cut into small pieces by a scissors. The cancer cells were transplanted into subcutaneous tissue of […] mice by a trucker. The day was assigned 0 day, and the tumor was measured by a slide caliper after 7 days. The volume of the tumor was calculated, and divided into groups (each group : n = 2). The text compound was dissolved in dimethylsulfoxide, and diluted with 5 % Tween 80- saline aqueous solution. […] The administration was carried out after 7 days, after 11 days and after 15 days from the transplantation at a rate of once per one day. 21st day from the transplantation, the volume of tumor was measured and the volume of tumor and the inhibition against tumor multiplication rate (I.R.) were calculated by the above formulas.

[2] = system: mouse carcinoma of the colon cells colon 26; experiment: Evaluation of cytotoxity of synthesized derivatives by the MTT method (Example 8); assay type: cell-based; details: for IC50: Mus musculus
Method: (§2) Antitumor activity of the synthesized derivatives against various cancer cells was measured by the MTT method. The cancer cells used were mouse carcinoma of the colon cells colon 26 (Gan Kenkyu-sho, Gan Kenkyu-kai) and mouse leukemia cells P388 (Dai-Nippon Seiyaku), and the culture medium contained 10 % fetal calf serum. Each cells were placed in each well of 96 well microplate n an amount of […]/50 µL/well and 50 µL of a test compound aqueous solution in each concentration was added. After incubating at 37 °C for 3 days, the number of survival cells was measured by the MTT method, and a dose-reaction curve was made. Thereby, the concentration of each test compound inhibiting multiplication at a rate of 50 % (IC50) was calculated.

[3] = system: mouse leukemia cells P388; experiment: as above; assay type: cell-based; details: for IC50: Mus musculus, read-out: P388 IC50[ng/mL]
Method: as §2

[4] = system: Human carcinoma of the colon cell strain HCT-116; experiment: Tertiary culture using test human cancer, killed cells by MTT method; assay type: cell-based; details: incubated 3 days
Method: Tertiary cultures were carried out using a human carcinoma of the colon tissue in stage 2b. The tertiary cultures were carried out according to the reported method (Int.J.Cancer Res., 82, 607-612 (1991), Gan to Kagakuryoho, 18, 239-243 (1991), Gan to Kagakuryoho, 19, 743-748 (1992)). The extracted tissue of carninoma of the colon was cut into square pieces having a side of about 2 mm, and incubated in a RPMI- 1640 medium containing 10 % fetal calf serum under 5 % CO2 at 37 °C for 3 days. Existing anticancer agents or acetylgliotoxin were diluted and added, and further incubated for 3 days. Then, the rate of killed cells was determined by the MTT method. The tertiary cultures using the test human cancer were carried out as follows: Human carcinoma of the colon cell strain HCT-116 was transplanted into the subcutaneous tissue of a nude mouse (Balb nu/nu) to induce tumor. The cancer tissue was extracted from the tumor-induced portion, and cut into square pieces having a side of 2 mm. The evaluation of the existing anticancer agents and acetylyliotoxin was earried out according to the aforementioned method.

[5] = system: human carcinoma of the colon cells HCT-116; experiment: Anticancer effect in vivo against HCT 116 (Example 9 B); set-up: species or system mouse; details: 5 [mg/kg]×3 (i.p.), 7,11,15th days, Balb/c nu/nu mice
Method: as §1

[6] = 2.5[mg/kg]×3 (i.p.), 7,11,15th days
[7] = 5 [mg/kg]×3 (i.p.), 7,11,15th days
[8] = 72 h, colon 26, 3 days, MTT, read-out: colon 26 IC 50
[9] = 10 [mg/kg]×2 (i.v.), 7, 14th days
[10] = 10 [mg/kg]×2 (i.p.), 7,8th days

CN1C(=O)[C@]23Cc4ccccc4N2C(=O)[C@]1(CO)SS3 [Compound of Example 3, (3S, 10aR)―2,3-dihydro―3―(hydroxymethyl)―2― methyl―10H―3,10a―epidithiopyrazino[1,2―a]indole― 1,4―dione]
I.R. (21st day) [1, 6]: 35.2%
I.R.Max [1, 6]: 35.3%
I.R. (21st day) [1, 7]: 43.7%
I.R.Max [1, 7]: 51.6%
IC50 [2, 8]: 58 ng/mL (≈ 0.188 µM)
IC50 ([3]; 72 h, P388, 3 days, MTT): 3.2 ng/mL (≈ 0.0104 µM)

CN1C(=O)[C@]23Cc4cccc(OCC#N)c4N2C(=O)[C@]1(CO)SS3 [Compound of Example 6, (3S, 10aR)―6―(cyanomethoxy)―2,3―dihydro―3― (hydroxymethyl)―2―methyl―10H-3,10a―a― epidithiopyrazino[1,2―a]indole―1,4―dione]
colon 26 IC 50 ([2]; colon 26, 3 days, MTT): 0.07 µg/mL
P388 IC50[ng/mL] ([3]; P388, 3 days, MTT): 5.8 ng/mL

O=c1[nH]cc(F)c(=O)[nH]1 [5-F U, 5-Fluorouracil]
I. R. (%) ([4]; conc. 500 ug/mL): 38%

CN1C(=O)[C@]23CC4=CC=C[C@H](O)[C@H]4N2C(=O)[C@@]1(CO)SS3 [Gliotoxin, gliotoxin]
I. R. (%) ([4]; conc. 12.5 ug/mL): 28%
I. R. (%) ([4]; conc. 25 ug/mL): 66%

COc1cccc2c1C(=O)c1c(O)c3c(c(O)c1C2=O)C[C@@](O)(C(=O)CO)C[C@@H]3O[C@H]1C[C@H](N)[C@H](O)[C@H](C)O1 [Adriamycin, reference compound]
I.R. (21st day) [1, 9]: 38.9%
I.R.Max [1, 9]: 38.9%
I. R. (%) ([4]; conc. 6 ug/mL): 0%

CC(=O)O[C@H]1C(=O)[C@@]2(C)[C@H]([C@H](OC(=O)c3ccccc3)[C@]3(O)C[C@H](OC(=O)[C@H](O)[C@@H](NC(=O)c4ccccc4)c4ccccc4)C(C)=C1C3(C)C)[C@]1(OC(C)=O)CO[C@@H]1C[C@@H]2O [T A X O L, Taxol]
I. R. (%) ([4]; conc. 100 ug/mL): 19%

CO[C@@]12[C@H](COC(N)=O)C3=C(C(=O)C(C)=C(N)C3=O)N1C[C@@H]1N[C@@H]12 [M M C, Mitomycin C]
I. R. (%) ([4]; conc. 15 ug/mL): 34%

CC[C@]1(O)C[C@@H]2CN(CCc3c([nH]c4ccccc34)[C@@](C(=O)OC)(c3cc4c(cc3OC)N(C)[C@H]3[C@@](O)(C(=O)OC)[C@H](OC(C)=O)[C@]5(CC)C=CCN6CC[C@]43[C@@H]65)C2)C1 [Vinblastine]
I. R. (%) ([4]; conc. 100 ug/mL): 20%

CC(=O)Oc1cccc2c1N1C(=O)[C@]3(CO)SS[C@]1(C2)C(=O)N3C [Compound of Example 5, (3 S, 10aR)―6―acetoxy―2,3―dihydro―3―(hydroxymethyl)― 2―methyl―10H―3,10a―epidithiopyrazino[1,2―a]indole―1, 4―dione]
IC50 [2, 8]: 74 ng/mL (≈ 0.202 µM)
IC50 ([3]; 72 h, P388, 3 days, MTT): 13 ng/mL (≈ 0.0355 µM)

COC(=O)COc1cccc2c1N1C(=O)[C@]3(CO)SS[C@]1(C2)C(=O)N3C [Compound of Example 7, (3S, 10aR)―2,3―dihydro―3― (hydroxymethyl)―6―[(methoxycarbonyl)methyloxy]―2― methyl―10H―3,10a―epidiopyrazino[1,2―a]indole―1,4― dione]
colon 26 IC 50 ([2]; colon 26, 3 days, MTT): 0.082 µg/mL

[NH2][Pt]([NH2])([Cl])[Cl] [CDDP, Cisplatin, reference compound]
I. R. (%) ([4]; conc. 25 ug/mL): 6%
I.R. (21st day) [5]: 15.6%
I.R.Max [5]: 47.5%

CN1C(=O)[C@]23Cc4cccc(O)c4N2C(=O)[C@]1(CO)SS3 [Compound of Example 4, (3S, 10aR)―2,3―dihydro―6―hydroxy―3―(hydroxymethyl)― 2―methyl―10H―3,10a―epidithiopyrazino[1,2―a]indole― 1,4―dione]
I.R. (21st day) [1, 6]: 40.1%
I.R.Max [1, 6]: 54.5%
I.R. (21st day) [1, 7]: 52.9%
I.R.Max [1, 7]: 58.9%
I.R. (21st day) [1, 10]: 43.5%
I.R.Max [1, 10]: 79.8%
I.R. (21st day) [5]: 63.8%
I.R.Max [5]: 66.5%
IC50 ([2]; Colon 26, 72 h, read-out: colon 26 IC 50 [ng/mL]): 110 ng/mL (≈ 0.339 µM)
IC50 ([3]; P388, 72 h): 21 ng/mL (≈ 0.0647 µM)
